Values of other authors, collected in patent US8765470B2, “Reprogramming immortalized B-cells to induced pluripotent stem cells” (Cellular Dynamics International, Inc., priority 2010, dated 2014).

Legend:
[1] = test system: EBV replication; conditions: in vitro; Lin et al., 1983
[2] = test system: EBV; conditions: Norseen et al., 2009
[3] = Kira et al., 2000
[4] = test system: Epstein-Barr virus (EBV); conditions: anti-EBV activity; Kira et al., 2000; read-out: 50% effective concentration

SMILES | inhibition of EBV replication [1] | effect on EBV proliferation [2] | also measured
Nc1nc(=O)n([C@@H]2O[C@H](CO)[C@@H](O)[C@@H]2F)cc1I [1-(2-deoxy-2-fluoro-beta-D-arabinofuranosyl)-5-iodocytosine] | potent inhibitors | – | –
Cc1cn([C@@H]2O[C@H](CO)[C@@H](O)[C@@H]2F)c(=O)[nH]c1=O [1-(2-deoxy-2-fluoro-beta-D-arabinofuranosyl)-5-methyluracil] | potent inhibitors | – | –
CN(C)c1ccc(Nc2c3ccc(NC(=O)CCN4CCCC4)cc3nc3cc(NC(=O)CCN4CCCC4)ccc23)cc1 [BRACO-19] | – | block EBV proliferation | –
O=c1[nH]c(=O)n([C@H]2C[C@H](O)[C@@H](CO)O2)cc1/C=C/Br [E-5-(2-bromovinyl)-2′-deoxyuridine] | potent inhibitors | – | –
C[n+]1cccc(-c2c3nc(c(-c4ccc[n+](C)c4)c4ccc([nH]4)c(-c4ccc[n+](C)c4)c4nc(c(-c5ccc[n+](C)c5)c5ccc2[nH]5)C=C4)C=C3)c1 [TMPyP3] | – | block EBV proliferation | –
C[n+]1ccc(-c2c3nc(c(-c4cc[n+](C)cc4)c4ccc([nH]4)c(-c4cc[n+](C)cc4)c4ccc([nH]4)c(-c4cc[n+](C)cc4)c4nc2C=C4)C=C3)cc1 [TMPyP4] | – | block EBV proliferation | –
O=c1[nH]c(=O)n([C@@H]2CO[C@H](CO)O2)cc1I [beta-L-5-Iododioxolane uracil] | – | – | 50% cytotoxic concentration [3]: 1,000 microM; EC50 [4]: 30 nM
